Test [1] has as its system human skin explants. The test is described as follows: UV-induced CPD in human skin explants (immunohistochemistry). The settings on record: epidermis; treatment of UV-exposed explants (post-treatment, RM191A Gel 2); vs UV-exposed controls. It counts as cell-based. The source says: FIG. 4: RM191A protects against UV-induced oxidative stress. (A) Representative images of immunohistochemical staining of CPDs in human explants from isotype control and sham exposed explants. There was little staining in the isotype control. […] (B) Representative images of immunohistochemical staining of CPDs in human skin explants from UV-exposed explants. (C) Analysis of CPD in epidermis of skin explants. Bars indicate significant differences **** p<0.001; NS=not significant between data sets (n=3 explants per data point).
(§1) Exposure of skin to UV radiation induces oxidative stress via a dramatic increase in ROS (see, Dunaway et al., 2018). In this section of the research work we measured oxidative DNA damage caused by UV-induced cyclobutene pyrimidine dimers (CPD), oxidative DNA damage resulting from UV-induced 8-oxo-guanine (8-oxoG), and nitrosative DNA damage caused by 8-nitroguanine (8NG) (Mason et al., 2013). Typically, if these DNA lesions are not adequately repaired, they lead to mutations which may then lead to the development of skin tumours (Mason et al., 2013). Our primary objective here was to determine if RM191A, when applied topically to ex vivo human skin, reduced UV-induced DNA damage.
(§2) The same treatment protocols were also followed for a placebo gel which contained no RM191A. […]

Test [2] concerns human skin explants. In words: UV-induced 8-oxoG in human skin explants (immunohistochemistry). Type of test: cell-based. Particulars: epidermis; treatment of UV-exposed explants (post-treatment, RM191A Gel 2); vs UV-exposed controls.
Text: FIG. 5. (A) Representative images of immunohistochemical staining of 8-oxoG in human explants from isotype control and sham exposed explants. (B) Representative images of immunohistochemical staining of 8-oxoG in human skin explants from UV-exposed explants. (C-D) Analysis of 8-oxoG in (C) epidermis and (D) dermis of skin explants. Bars indicate significant differences **** p<0.001; NS=not significant between data sets (n=3 explants per data point).
as §1, §2

Test [3] has as its system human skin explants. The test is described as follows: UV-induced 8-nitroguanine (8NGO) in human skin explants (immunohistochemistry). The settings on record: either protocol. It counts as cell-based.
Text: FIG. 6. (A) Representative images of immunohistochemical staining of 8NGO in human explants from isotype control and sham exposed explants. (B) Representative images of immunohistochemical staining of 8NGO in human skin explants from UV-exposed explants. (C-D) Analysis of 8NGO in epidermis (C) and dermis (D) of skin explants. Bars indicate significant differences **** p<0.001; NS=not significant between data sets (n=3 explants per data point).
as §1, §2

Test [4] is described as follows: NBT superoxide scavenging (SOD-like activity) assay. Particulars: for Absorbance 560 nm Ave: SOD primary data. Type of test: biochemical. The source says:
The purpose of these experiments was to measure the Superoxide Dismutase-like (SOD-like) activity of the copper ion complex (RM191A) depicted in the Examples below as “Cu”. The inventors employed a modified version of the method described by Beauchamp and Fridovich (see, Beauchamp et al. 1971). The reason for this modification was to create a reaction mixture that successfully generates known quantities of the O2^− free radical but does so at a pH at which the copper ion complex is stable—specifically in the range pH 6.5-7.8.
Because of the instability of its substrate, all available chemical assays of SOD and SOD-like activity are necessarily indirect and depend upon its ability to scavenge O2^− from reaction mixtures and thus to inhibit reactions caused by O2^−.
NitroBlue Tetrazolium (NBT) was selected as an indicator to measure and compare the superoxide scavenging activities of both bovine SOD and the copper ion complex (“RM191A,” the preparation of which is described in detail in International PCT Patent Publication No. WO/AU2016/201524), This assay utilizes photochemical events to generate O2^− in a sodium tetraborate buffered solution of acetone and isopropanol which is then irradiated by high energy UV light at 254 nm (Mercury Vapour Lamp) to create O2^− in the solution.
SOD and SOD-like substances inhibit the formation of the blue formazan by neutralising the superoxide free radicals as they are forming. Blue formazan has a characteristic UV absorbance at 560 nm. The quantitation of the UV absorbance of the reaction solution at 560 nm is a direct measure the SOD and SOD-like activity of a substance.
UV absorbances of the reaction solutions were measured at 560 nm following irradiation with UV light to determine the superoxide free radical scavenging activity in situ of both bovine SOD and the copper ion complex (RM191A).
Each reaction solution consists of 0.5 ml of 200 μmol/L NBT in borate buffer (pH=7.1) and 0.5 ml of a 200 μmol/L solution of the test compound in 5.0 mL of 5 mol/L isopropanol.
To each reaction vessel 15 mg acetone (20 μL) as added to begin the reaction. Each vessel was then irradiated with UV light at 254 nm (mercury vapour lamp) for 1 minute.
The reaction solution was then transferred into UV Vis cells and the absorbance at 560 nm was measured.
A number of test solution concentrations were assayed by adding, 1.0, 1.25, 1.5, 1.75, 2.0 mL of a 200 μmol/L solution of the test compound and bringing the total volume to 5.0 mL with 5 mol/L isopropanol.
The method uses a Cu control to remove the minor background copper absorbance.

As for `C=C1/C(=C\C=C2/CCC[C@]3(C)[C@@H]([C@H](C)CCCC(C)(C)O)CC[C@@H]23)C[C@@H](O)C[C@@H]1O` [1,25D, 1,25-dihydroxy vitamin D3], in the test on human skin explants [1], the “decrease in CPD” value is recorded as 30%. In addition, in the test on human skin explants [2], the “decrease in nuclear 8-oxoG” value turned out to be 27%. The “8NGO vs UV-exposed controls” value in the test on human skin explants [3] is “significantly decreased”.

In the case of “SOD: bovine superoxide dismutase used as comparator”, the “Absorbance (Table 5)” value was found to be 0.2988 in test [4] (1.6 μM), 0.2879 in test [4] (20 μM), 0.2348 in test [4] (40 μM) and 0.332 in test [4] (80 μM). For the same molecule, the “Absorbance 560 nm Ave” value in test [4] (Molarity 0.0000016) turned out to be 0.2988; in test [4] (Molarity 0.00002), 0.2879; in test [4] (Molarity 0.00004) it was 0.2348; in test [4] (Molarity 0.00008), 0.332; in test [4] (Molarity 0.0001) it was 0.3163; in test [4] (Molarity 0.00012), 0.3215. In addition, the “Absorbance 560 nm Ave” value in test [4] (Molarity 0.00014) turned out to be 0.3555.

Values taken from patent publication US12472207B2, “Anti-inflammatory compositions and methods” (RR Medsciences Pty Ltd., priority 2019, dated 2025).
